Legend:
[1] = xn = mol fraction of the nth substance listed; settings: 101 kPa, Liquid
[2] = relative permittivity at zero frequency (dimensionless); xn = mol fraction of the nth substance listed; settings: 101 kPa, Liquid, Parallel plate capacitor
[3] = relative permittivity at zero frequency (dimensionless); settings: 101 kPa, Liquid, Parallel plate capacitor
[4] = 101 kPa, Liquid

OCCOCCOCCO [triethylene glycol] + CCCOCCO
x2 = 0
Settings | mass density, 293.15 K [kg/m3] | mass density, 298.15 K [kg/m3] | mass density, 303.15 K [kg/m3] | relative permittivity at zero frequency, 293.15 K | relative permittivity at zero frequency, 298.15 K | relative permittivity at zero frequency, 303.15 K
[1] | 1123.74 | 1119.66 | 1115.83 | – | – | –
[2] | – | – | – | 23.69 | 23.07 | 22.43

OCCOCCO [diethylene glycol]
Settings | mass density, 293.15 K [kg/m3] | mass density, 298.15 K [kg/m3] | mass density, 303.15 K [kg/m3] | relative permittivity at zero frequency, 293.15 K | relative permittivity at zero frequency, 298.15 K | relative permittivity at zero frequency, 303.15 K
[3] | – | – | – | 31.81 | 30.95 | 30.03
[4] | 1116.38 | 1113.03 | 1109.47 | – | – | –

OCCOCCO [diethylene glycol] + CCCOCCO
x2 = 0
Settings | mass density, 293.15 K [kg/m3] | mass density, 298.15 K [kg/m3] | mass density, 303.15 K [kg/m3] | relative permittivity at zero frequency, 293.15 K | relative permittivity at zero frequency, 298.15 K | relative permittivity at zero frequency, 303.15 K
[1] | 1116.38 | 1113.03 | 1109.47 | – | – | –
[2] | – | – | – | 31.81 | 30.95 | 30.03

OCCOCCOCCO [triethylene glycol]
Settings | mass density, 293.15 K [kg/m3] | mass density, 298.15 K [kg/m3] | mass density, 303.15 K [kg/m3] | relative permittivity at zero frequency, 293.15 K | relative permittivity at zero frequency, 298.15 K | relative permittivity at zero frequency, 303.15 K
[3] | – | – | – | 23.69 | 23.07 | 22.43
[4] | 1123.74 | 1119.66 | 1115.83 | – | – | –

CCCOCCO [2-propoxyethanol]
Settings | mass density, 293.15 K [kg/m3] | mass density, 298.15 K [kg/m3] | mass density, 303.15 K [kg/m3] | relative permittivity at zero frequency, 293.15 K | relative permittivity at zero frequency, 298.15 K | relative permittivity at zero frequency, 303.15 K
[3] | – | – | – | 11.76 | 11.5 | 11.19
[4] | 913.31 | 908.19 | 903.11 | – | – | –

CCCOCCO [2-propoxyethanol] + OCCOCCO
Settings | mass density, 293.15 K [kg/m3] | mass density, 298.15 K [kg/m3] | mass density, 303.15 K [kg/m3] | relative permittivity at zero frequency, 293.15 K | relative permittivity at zero frequency, 298.15 K | relative permittivity at zero frequency, 303.15 K
[1], x1 = 0.0436 | 1106.38 | 1102.72 | 1098.89 | – | – | –
[1], x1 = 0.1 | 1093.5 | 1089.56 | 1085.52 | – | – | –
[1], x1 = 0.2007 | 1071 | 1066.79 | 1062.47 | – | – | –
[1], x1 = 0.2997 | 1049.58 | 1045.22 | 1040.76 | – | – | –
[1], x1 = 0.3999 | 1028.62 | 1024.11 | 1019.56 | – | – | –
[1], x1 = 0.4968 | 1008.87 | 1004.21 | 999.53 | – | – | –
[1], x1 = 0.6002 | 988.3 | 983.48 | 978.63 | – | – | –
[1], x1 = 0.6985 | 969.23 | 964.21 | 959.16 | – | – | –
[1], x1 = 0.7998 | 950.04 | 944.82 | 939.65 | – | – | –
[1], x1 = 0.8992 | 931.65 | 926.35 | 921.14 | – | – | –
[1], x1 = 0.9499 | 922.4 | 917.14 | 911.97 | – | – | –
[1], x1 = 1 | 913.31 | 908.19 | 903.11 | – | – | –
[2], x1 = 0.0435 | – | – | – | 31.3 | 30.42 | 29.5
[2], x1 = 0.0998 | – | – | – | 30.58 | 29.69 | 28.76
[2], x1 = 0.197 | – | – | – | 29.18 | 28.31 | 27.4
[2], x1 = 0.2962 | – | – | – | 27.57 | 26.74 | 25.88
[2], x1 = 0.3996 | – | – | – | 25.72 | 24.95 | 24.14
[2], x1 = 0.4964 | – | – | – | 23.82 | 23.13 | 22.39
[2], x1 = 0.5955 | – | – | – | 21.73 | 21.13 | 20.46
[2], x1 = 0.6996 | – | – | – | 19.43 | 18.88 | 18.29
[2], x1 = 0.8001 | – | – | – | 17.06 | 16.58 | 16.06
[2], x1 = 0.8999 | – | – | – | 14.55 | 14.13 | 13.7
[2], x1 = 0.9499 | – | – | – | 13.2 | 12.83 | 12.46
[2], x1 = 1 | – | – | – | 11.76 | 11.5 | 11.19

CCCOCCO [2-propoxyethanol] + OCCOCCOCCOCCO
Settings | mass density, 293.15 K [kg/m3] | mass density, 298.15 K [kg/m3] | mass density, 303.15 K [kg/m3] | relative permittivity at zero frequency, 293.15 K | relative permittivity at zero frequency, 298.15 K | relative permittivity at zero frequency, 303.15 K
[1], x1 = 0.05 | 1116.81 | 1113.41 | 1110.02 | – | – | –
[1], x1 = 0.0996 | 1109.94 | 1106.38 | 1102.89 | – | – | –
[1], x1 = 0.1997 | 1095.15 | 1091.4 | 1087.69 | – | – | –
[1], x1 = 0.3 | 1079.09 | 1075.16 | 1071.19 | – | – | –
[1], x1 = 0.4012 | 1061.43 | 1057.31 | 1053.07 | – | – | –
[1], x1 = 0.5 | 1042.6 | 1038.25 | 1033.77 | – | – | –
[1], x1 = 0.6 | 1021.64 | 1017.06 | 1012.39 | – | – | –
[1], x1 = 0.7 | 998.51 | 993.75 | 988.93 | – | – | –
[1], x1 = 0.8 | 973.03 | 968.09 | 963.16 | – | – | –
[1], x1 = 0.9 | 944.82 | 939.77 | 934.7 | – | – | –
[1], x1 = 0.95 | 929.54 | 924.43 | 919.34 | – | – | –
[1], x1 = 1 | 913.31 | 908.19 | 903.11 | – | – | –
[2], x1 = 0.05 | – | – | – | 20.13 | 19.58 | 19.01
[2], x1 = 0.1 | – | – | – | 19.82 | 19.26 | 18.68
[2], x1 = 0.2 | – | – | – | 19.18 | 18.62 | 18.05
[2], x1 = 0.3002 | – | – | – | 18.49 | 17.95 | 17.39
[2], x1 = 0.4001 | – | – | – | 17.73 | 17.21 | 16.69
[2], x1 = 0.5003 | – | – | – | 16.88 | 16.4 | 15.91
[2], x1 = 0.6 | – | – | – | 15.95 | 15.53 | 15.07
[2], x1 = 0.7002 | – | – | – | 14.99 | 14.61 | 14.18
[2], x1 = 0.7999 | – | – | – | 14.01 | 13.64 | 13.24
[2], x1 = 0.9 | – | – | – | 12.96 | 12.62 | 12.26
[2], x1 = 0.9501 | – | – | – | 12.38 | 12.07 | 11.73
[2], x1 = 1 | – | – | – | 11.76 | 11.5 | 11.19

CCCOCCO [2-propoxyethanol] + OCCOCCOCCO
Settings | mass density, 293.15 K [kg/m3] | mass density, 298.15 K [kg/m3] | mass density, 303.15 K [kg/m3] | relative permittivity at zero frequency, 293.15 K | relative permittivity at zero frequency, 298.15 K | relative permittivity at zero frequency, 303.15 K
[1], x1 = 0.0413 | 1116.67 | 1112.44 | 1108.49 | – | – | –
[1], x1 = 0.1061 | 1105.37 | 1100.97 | 1096.78 | – | – | –
[1], x1 = 0.1986 | 1088.75 | 1084.08 | 1079.65 | – | – | –
[1], x1 = 0.2999 | 1069.72 | 1064.9 | 1060.23 | – | – | –
[1], x1 = 0.3999 | 1050.01 | 1045.15 | 1040.34 | – | – | –
[1], x1 = 0.5 | 1029.46 | 1024.57 | 1019.67 | – | – | –
[1], x1 = 0.6 | 1008.1 | 1003.16 | 998.18 | – | – | –
[1], x1 = 0.7002 | 985.9 | 980.84 | 975.77 | – | – | –
[1], x1 = 0.8 | 962.85 | 957.69 | 952.55 | – | – | –
[1], x1 = 0.9 | 938.69 | 933.46 | 928.29 | – | – | –
[1], x1 = 0.95 | 926.18 | 920.99 | 915.81 | – | – | –
[1], x1 = 1 | 913.31 | 908.19 | 903.11 | – | – | –
[2], x1 = 0.0501 | – | – | – | 23.33 | 22.71 | 22.07
[2], x1 = 0.1003 | – | – | – | 22.93 | 22.33 | 21.68
[2], x1 = 0.2005 | – | – | – | 22.09 | 21.51 | 20.89
[2], x1 = 0.2999 | – | – | – | 21.25 | 20.64 | 20.02
[2], x1 = 0.4001 | – | – | – | 20.35 | 19.66 | 19.06
[2], x1 = 0.5 | – | – | – | 19.33 | 18.59 | 18.02
[2], x1 = 0.6002 | – | – | – | 18.11 | 17.41 | 16.88
[2], x1 = 0.7002 | – | – | – | 16.71 | 16.13 | 15.63
[2], x1 = 0.8 | – | – | – | 15.16 | 14.73 | 14.28
[2], x1 = 0.9 | – | – | – | 13.53 | 13.18 | 12.78
[2], x1 = 0.95 | – | – | – | 12.69 | 12.36 | 11.99
[2], x1 = 1 | – | – | – | 11.76 | 11.5 | 11.19

Source: the NIST ThermoML archive (doi:10.1016/j.jct.2007.09.004)
